The subject of test [1] is ECHCO. Kind of test: Example I: postemergence foliar-applied weed control, greenhouse. Particulars: for Visual Weed Control (%) - 19 DAA ECHCO Obs: foliar; for Visual Weed Control Obs: 20 DAA. It counts as in vivo, Echinochloa colona (L.) Link (junglerice). The text has this: (§1) Seeds or nutlets of the desired test plant species were planted in a soil matrix prepared by mixing a loam or sandy loam soil (e.g., 28.6 percent silt, 18.8 percent clay, and 52.6 percent sand, with a pH of about 5.8 and an organic matter content of about 1.8 percent) and calcareous grit in an 80 to 20 ratio. The soil matrix was contained in plastic pots with a volume of 1 quart and a surface area of 83.6 square centimeters (cm^2). When required to ensure good germination and healthy plants, a fungicide treatment and/or other chemical or physical treatment was applied. The plants were grown for 8-22 days in a greenhouse with an approximate 14 hr photoperiod which was maintained at about 29° C. during the day and 26° C. during the night. Nutrients (Peters Excel® 15-5-15 5-Ca 2-Mg and iron chelate) were applied in the irrigation solution as needed and water was added on a regular basis. Supplemental lighting was provided with overhead metal halide 1000-Watt lamps as necessary. The plants were employed for testing when they reached the first through fourth true leaf stage.
(§2) Treatments consisted of the acid or esters of 4-amino-3-chloro-5-fluoro-6-(4-chloro-2-fluoro-3-methoxy-phenyl)pyridine-2-carboxylic acid (Compound A), each formulated as an SC (suspension concentrate), and various herbicidal components alone and in combination. Forms of compound A were applied on an acid equivalent basis.
(§3) Other herbicidal components were applied on an active ingredient basis and included very long chain fatty acid (VLCFA) synthesis-inhibiting and fatty acid/lipid synthesis-inhibiting herbicides acetochlor (technical grade material), acetochlor+dichlormid formulated as Topnotch®, pretilachlor (technical grade material), butachlor formulated as Butachlor EC, fentrazamide formulated as Fentrazamide EC, thiobencarb formulated as Bolero® 8EC, cafenstrole formulated as Himeadow® WP or Lapost® Flowable, benfuresate formulated as Full Shot®, dimethenamid-P formulated as Outlook®, indanofan (technical grade material), flufenacet formulated as Define® DF, mefenacet (technical grade material), S-metolachlor formulated as Dual® II Magnum, pethoxamid formulated as Successor® 600, and pyroxasulfone (technical grade material).
(§4) Treatment requirements were calculated based upon the rates being tested, the concentration of active ingredient or acid equivalent in the formulation, and a 12 mL application volume at a rate of 187 L/ha.
(§5) For treatments comprised of formulated compounds, measured amounts of compounds were placed individually in 25 mL glass vials and diluted in a volume of 1.25% (v/v) Agri-Dex® crop oil concentrated to obtain 12× stock solutions. […] Application solutions were prepared by adding an appropriate amount of each stock solution (e.g., 1 mL) and diluted to the appropriate final concentrations with the addition of 10 mL of an aqueous mixture of 1.25% (v/v) crop oil concentrate so that the final spray solutions contained 1.25+/−0.05% (v/v) crop oil concentrate.
(§6) For treatments comprised of technical compounds, weighed amounts can be placed individually in 25 mL glass vials and dissolved in a volume of 97:3 v/v acetone/DMSO to obtain 12× stock solutions. […] Application solutions can be prepared by adding an appropriate amount of each stock solution (e.g., 1 mL) and diluted to the appropriate final concentrations with the addition of 10 mL of an aqueous mixture of 1.5% (v/v) crop oil concentrate so that the final spray solutions contain 1.25% (v/v) crop oil concentrate. When technical materials are used, the concentrated stock solutions can be added to the spray solutions so that the final acetone and DMSO concentrations of the application solutions are […], respectively. […]

Test [2] has as its system LEFCH. Kind of test: Example II: in-water applied weed control, transplanted paddy rice, greenhouse. The test is classed as in vivo, Leptochloa chinensis (L.) Nees (Chinese sprangletop). Particulars: 19 DAA. As for the experimental part: (§7) Weed seeds or nutlets of the desired test plant species were planted in puddled soil (mud) prepared by mixing a shredded, non-sterilized mineral soil (50.5 percent silt, 25.5 percent clay, and 24 percent sand, with a pH of about 7.6 and an organic matter content of about 2.9 percent) and water at a 1:1 volumetric ratio. The prepared mud was dispensed in 365 mL aliquots into 16-ounce (oz.) non-perforated plastic pots with a surface area of 86.59 square centimeters (cm^2) leaving a headspace of 3 centimeters (cm) in each pot. Mud was allowed to dry overnight prior to planting or transplanting. Rice seeds were planted in Sun Gro MetroMix® 306 planting mixture, which typically has a pH of 6.0 to 6.8 and an organic matter content of about 30 percent, in plastic plug trays. Seedlings at the second or third leaf stage of growth were transplanted into 840 mL of mud contained in 32-oz. non-perforated plastic pots with a surface area of 86.59 cm^2 4 days prior to herbicide application. The paddy was created by filling the headspace of the pots with 2.5 to 3 cm of water. When required to ensure good germination and healthy plants, a fungicide treatment and/or other chemical or physical treatment was applied. The plants were grown for 4-22 days in a greenhouse with an approximate 14 hr photoperiod which was maintained at about 29′C during the day and 26° C. during the night. Nutrients were added as Osmocote® (19:6:12, N:P:K+ minor nutrients) at 2 g per 16-oz. pot and 4 g per 32-oz. pot. Water was added on a regular basis to maintain the paddy flood, and supplemental lighting was provided with overhead metal halide 1000-Watt lamps as necessary. The plants were employed for testing when they reached the first through fourth true leaf stage.
(§8) Treatments consisted of the acid or esters of 4-amino-3-chloro-5-fluoro-6-(4-chloro-2-fluoro-3-methoxy-phenyl)pyridine-2-carboxylic acid (compound A) each formulated as an SC (suspension concentrate) and various herbicidal components alone and in combination. Forms of compound A were applied on an acid equivalent basis.
(§9) The herbicidal components were applied on an active ingredient basis and included very long chain fatty acid (VLCFA) synthesis-inhibiting and fatty acid/lipid synthesis-inhibiting herbicides acetochlor (technical grade material), acetochlor+dichlormid formulateded as Topnotch®, pretilachlor (technical grade material), butachlor formulated as Butachlor EC, fentrazamide formulated as Fentrazamide EC, thiobencarb formulated as Bolero® 8EC, cafenstrole formulated as Himeadow® WP or Lapost® Flowable, benfuresate formulated as Full Shot®, anilofos (technical grade material), mefenacet (technical grade material), molinate (technical grade material), and thenylchlor (technical grade material).
(§10) Treatment requirements for each compound or herbicidal component were calculated based upon the rates being tested, the concentration of active ingredient or acid equivalent in the formulation, an application volume of 2 mL per component per pot, and an application area of 86.59 cm^2 per pot.
(§11) For formulated compounds, a measured amount was placed in an individual 100 or 200 mL glass vial and was dissolved in a volume of 1.25% (v/v) Agri-Dex® crop oil concentrate to obtain application solutions.
(§12) For technical grade compounds, a weighed amount was placed in an individual 100 to 200 mL glass vial and was dissolved in a volume of acetone to obtain concentrated stock solutions. […] The concentrated stock solutions obtained were diluted with an equivalent volume of an aqueous mixture containing 2.5% (v/v) crop oil concentrate so that the final application solutions contained 1.25% (v/v) crop oil concentrate.
(§13) Applications were made by injecting with a pipetter appropriate amounts of the application solutions, individually and sequentially, into the aqueous layer of the paddy. Control plants were treated in the same manner with the solvent blank. […]

Test [3] concerns LEFCH. Description: Example I: postemergence foliar-applied weed control, greenhouse. It counts as in vivo, Leptochloa chinensis (L.) Nees (Chinese sprangletop). The note with it: for Visual Weed Control (%) - 19 DAA LEFCH Obs / Visual Weed Control (%) - 22 DAA LEFCH Obs: foliar; for Visual Weed Control Obs: 20 DAA.
From the text: as §1, §2, §3, §4, §5, §6

Test [4] deals with CYPRO. Description: Example II: in-water applied weed control, transplanted paddy rice, greenhouse. The test is classed as in vivo, Cyperus rotundus L. (purple nutsedge). As for the experimental part: as §7, §8, §9, §10, §11, §12, §13
In test [5] the test system is ECHOR. Described as above. The test is classed as in vivo, Echinochloa oryzoides (Ard.) Fritsch (early watergrass). As to the method: as §7, §8, §9, §10, §11, §12, §13
Test [6] concerns IPOHE. Kind of test: Example I: postemergence foliar-applied weed control, greenhouse. Particulars: 20 DAA. The test is classed as in vivo, Ipomoea hederacea Jacq. (ivyleaf morningglory).
From the text: as §1, §2, §3, §4, §5, §6

Test [7] deals with ECHCG. Kind of test: Example II: in-water applied weed control, transplanted paddy rice, greenhouse. It counts as in vivo, Echinochloa crus-galli (L.) Beauv. (barnyardgrass). As for the experimental part: as §7, §8, §9, §10, §11, §12, §13
For test [8], the system named is BRAPP. Description: Example I: postemergence foliar-applied weed control, direct seeded rice weeds, greenhouse. It counts as in vivo. Particulars: for Visual Weed Control Obs: 20 DAA; for Visual Weed Control (%) - 22 DAA BRAPP Obs: foliar.
From the text: as §1, §2, §3, §4, §5, §6

Test [9] relates to ECHCG. Description: Example I: postemergence foliar-applied weed control, greenhouse. It counts as in vivo, Echinochloa crus-galli (L.) Beauv. (barnyardgrass). The note with it: 20 DAA.
From the text: as §1, §2, §3, §4, §5, §6

Test [10] deals with CYPIR. Described as above. It counts as in vivo, Cyperus iria L. (rice flatsedge). Particulars: foliar.
From the text: as §1, §2, §3, §4, §5, §6

From patent US20130310256A1, “HERBICIDAL COMPOSITIONS COMPRISING 4-AMINO-3-CHLORO-5-FLUORO-6-(4-CHLORO-2-FLUORO-3-METHOXYPHENYL) PYRIDINE-2-CARBOXYLIC ACID OR A DERIVATIVE THEREOF AND VLCFA AND LIPID SYNTHESIS INHIBITING HERBICIDES” (DOW AGROSCIENCES LLC, priority 2008, published 2013) come the findings set out here.

Turning to `CCC1(CC2(c3cccc(Cl)c3)CO2)C(=O)c2ccccc2C1=O` (racemic) [Indanofan, (RS)-2-[[2-(3-chlorophenyl)oxiranyl]methyl]-2-ethyl-1H-indene-1,3(2H)-dione], the “Visual Weed Control (%) - 19 DAA ECHCO Obs” value is reported as 0% in test [1] (37.5 gai/ha), 0% in test [1] (75 gai/ha) and 35% in [1] (150 gai/ha). The entries for the “Visual Weed Control LEFCH Obs” value in [2] (37.5 gai/ha), in [2] (75 gai/ha) and in test [2] (150 gai/ha) were 10%, 20% and 95%, respectively. For the same molecule, the “Visual Weed Control (%) - 19 DAA LEFCH Obs” value in [3] (37.5 gai/ha) and in test [3] (75 gai/ha) was 0% in each case.

Turning to `CCCCOCN(C(=O)CCl)c1c(CC)cccc1CC` [Butachlor, N-(butoxymethyl)-2-chloro-N-(2,6-diethylphenyl)acetamide], the “Visual Weed Control (%) - 21 DAA CYPRO Obs” value in test [4] (225 gai/ha) and in [4] (450 gai/ha) was 0% throughout. Also, the “Visual Weed Control (%) - 21 DAA ECHOR Obs” value in [5] (225 gai/ha) worked out at 0%; in test [5] (450 gai/ha), 20%. Besides, the “Visual Weed Control Obs” value is recorded as 0% in test [1] (112.5 gai/ha); 0% in [1] (225 gai/ha); 0% in test [1] (450 gai/ha); 20% in test [6] (112.5 gai/ha); 30% in [6] (450 gai/ha); 0% in [8] (112.5 gai/ha). In addition, the “Visual Weed Control Obs” value in test [8] (225 gai/ha), in [8] (450 gai/ha), in test [3] (112.5 gai/ha), in test [3] (225 gai/ha), in test [3] (450 gai/ha) and in test [9] (112.5 gai/ha) was 0% each time. For the same molecule, the “Visual Weed Control Obs” value in [9] (225 gai/ha) and in [9] (450 gai/ha) was 0% in each case. Also, the “Visual Weed Control (%) - 21 DAA ECHCG Obs” value in test [7] (225 gai/ha) was 40%; in [7] (450 gai/ha) it was 20%.

`CN(C(=O)COc1nc2ccccc2s1)c1ccccc1` [Mefenacet, 2-(2-benzothiazolyloxy)-N-methyl-N-phenylacetamide]: in test [5] (Echinochloa oryzoides, 504 h, 300 gai/ha, 21 DAA, read-out: Visual Weed Control ECHOR Obs), the pest or weed control at 300 g/ha came to 80%. Besides, the pest or weed control at 600 g/ha in test [5] (Echinochloa oryzoides, 504 h, 600 gai/ha, 21 DAA, read-out: Visual Weed Control ECHOR Obs) stood at 100%. In [5] (Echinochloa oryzoides, 504 h, 1200 gai/ha, 21 DAA, read-out: Visual Weed Control ECHOR Obs), the pest or weed control at 1200 g/ha was found to be 100%. Further, the “Visual Weed Control (%) - 22 DAA BRAPP Obs” value in [8] (50 gai/ha), in test [8] (100 gai/ha) and in [8] (200 gai/ha) was 0% throughout. The “Visual Weed Control (%) - 22 DAA LEFCH Obs” value is recorded as 10% in test [3] (50 gai/ha) and 0% in test [3] (100 gai/ha). Further, the “Visual Weed Control (%) - 22 DAA CYPIR Obs” value in test [10] (100 gai/ha) was 0%; in test [10] (200 gai/ha), 20%.
